Assay results as given in PMC11246995 (Frontiers in Molecular Biosciences, 2024).

Columns and labels:
kidney tissues [1] = test: H&E histology of rotenone-treated kidney tissue sections; format: in vivo; details: rat, single oral 2 mg/kg, 24 h
Method: (§1) Rats were sacrificed 24 h after drug administration, and the kidney and liver organs were immediately removed, flash-frozen with liquid nitrogen, and stored at −80°C in a freezer for long-term storage. The administration and harvesting of organs were conducted by the Pharmalytics Corporation, accredited by the Food and Drug Administration (FDA, Philippines) for bioavailability and bioequivalence research. The animal study was reviewed and approved by the Institutional Animal Care and Use Committee (IACUC) Esteleydes Animal Laboratory and Research Facility and by the Bureau of Animal Industry—Animal Health and Welfare Division in the Philippines.
Matrix was removed from the laser-ablated kidney sections using 95% EtOH for 20 s before rehydration with distilled water. The tissue-mounted glass slides were immersed in Harris hematoxylin solution (Sigma Aldrich, St. Louis, MO, United States) for 4 min and the excess was rinsed off with deionized water twice for 1 min. Hematoxylin differentiation of tissues was then performed using 0.5% acid alcohol for 10 s. The glass slides were rinsed using deionized water for 1 min followed by soaking in ammonia solution for 1 min and rinsing in deionized water twice for 1 min. Kidney sections were then counterstained using eosin Y solution (Sigma Aldrich, St. Louis, MO, United States) for 2 min. […]

rats = details: ref Jiang et al. (2017); cited from earlier work
[2] = ref Udeani et al., 2001; Organization for Economic Cooperation and Development, 2020; cited from earlier work
[3] = Qualitative MALDI MSI with ion mobility: spatial distribution of rotenone and its metabolites in kidney and liver; format: in vivo; details: rat, single oral 2 mg/kg, 24 h
Method: Agarose-embedded kidney and liver organs were cut longitudinally at 5 µm thickness at −20°C using a cryostat (Leica CM 1950; Leica Biosystems, Germany), and thaw-mounted onto clean glass slides. The agarose-embedded kidney or liver was trimmed up to 500 µm to remove the agarose covering a portion of the organ. Subsequently, seven layers from the outer portion towards the middle were identified with a 100 µm distance between each layer. Representative cryosections were obtained from each identified layer of the untreated and drug-treated rat kidney. The agarose surrounding the kidney or liver cryosectioned tissue was manually removed before mounting onto a glass slide. Prior to matrix coating, the glass slides mounted with thin kidney cryosections were placed in a box and kept in a vacuum desiccator cabinet overnight ([Costa et al., 2013]; [Marques et al., 2014]; [Dalisay et al., 2015]; [Suarez et al., 2023]).
Matrix solution was applied to evenly coat the entire tissue surface using a HTX M5 Sprayer (HTX Technologies, LLC, Carrboro, NC, United States). The parameter settings were optimized to avoid metabolite delocalization and compromised spatial integrity. […]

kidney tissues [4] = test: MALDI MSI ion intensity of renal endogenous metabolites, rotenone-treated vs untreated kidney; format: in vivo, rat; set-up: key to Ion Intensity in Rotenone-treated Kidney Tissues: N-Acetylhistidine / Ion Intensity in Rotenone-treated Kidney Tissues: O-Phosphotyrosine / Ion Intensity in Rotenone-treated Kidney Tissues: Adenosine diphosphate / Ion Intensity in Rotenone-treated Kidney Tissues: LysoPC(P-16:0) / Ion Intensity in Rotenone-treated Kidney Tissues: LysoPC(16:1) / Ion Intensity in Rotenone-treated Kidney Tissues: LysoPC(16:0) / Ion Intensity in Rotenone-treated Kidney Tissues: LysoPC(17:0) / Ion Intensity in Rotenone-treated Kidney Tissues: LysoPC(18:2) / Ion Intensity in Rotenone-treated Kidney Tissues: L-carnitine / Ion Intensity in Rotenone-treated Kidney Tissues: LysoPC(18:1) / Ion Intensity in Rotenone-treated Kidney Tissues: LysoPC(20:4) / Ion Intensity in Rotenone-treated Kidney Tissues: Phosphorylcholine / Ion Intensity in Rotenone-treated Kidney Tissues: Adenosine monophosphate / Ion Intensity in Rotenone-treated Kidney Tissues: Creatinine / Ion Intensity in Rotenone-treated Kidney Tissues: Histidine / Ion Intensity in Rotenone-treated Kidney Tissues: Phenylalanine / Ion Intensity in Rotenone-treated Kidney Tissues: 3-methylhistidine / Ion Intensity in Rotenone-treated Kidney Tissues: Arginine: ↑ indicates higher ion intensity level than that of the control group; ↓ indicates lower ion intensity level than that of the control group; *p < 0.05; **p < 0.01; ***p < 0.001; details: vs control; for Ion intensity in rotenone-treated kidney tissues: Glycero-3-phosphocholine / Ion intensity in rotenone-treated kidney tissues: Inosine / Ion intensity in rotenone-treated kidney tissues: LysoPC(18:0): [M+K]+
Method: as §1
To identify possible metabolic alterations, the m/z values of endogenous compounds found in kidney were extracted from the human metabolome database (http://www.hmdb.ca). The spatial mapping of endogenous compounds was visualized by MALDI HDMS imaging. The detection of metabolite biomarkers was supported by their spatial distribution, normalized ion intensity, m/z accuracy, and similar drift time bins in thin tissues sectioned from the seven identified layers of drug-treated and control rat kidney.
MALDI HDMS raw data was imported into High-Definition Imaging (HDI) software v1.5 (Waters Corporation, Manchester, United Kingdom). Data processing was performed by detecting 10,000 intense peaks between a mass range of m/z 50–750, a drift time maximum of 200 bins, and a lock mass-based correction at m/z 464.6064. Following data processing, peak picking was carried out and data was normalized based on the total ion current (TIC). The spatial distribution of rotenone and kidney endogenous molecules from the m/z peak list was visualized using the HDI software. […] The tentative identification and assignment of kidney metabolites were based on the metabolites in the human metabolome database (http://www.hmdb.ca). The m/z values and structure of these renal endogenous molecules were verified using PubChem (https://pubchem.ncbi.nlm.nih.gov), ChemDraw Professionals, and by the related literature ([Jung et al., 2016]; [Nizioł et al., 2020]; [Zhu Y. et al., 2022]).
A multivariate analysis was performed by importing the merged CSV file of processed MALDI image data into EZinfo v3.0 (Waters Corporation, Manchester, United Kingdom). Principal component analysis (PCA) was used to find patterns or trend in the MALDI dataset of the control and drug-treated groups. A peak list of biomolecules was manually created for PCA analysis from the laser-ablated kidney tissue sections. Pareto variance was used to scale the x-variable and to eliminate any bias in this unsupervised algorithm. Similar and far away observations between the dataset were illustrated based on the t[1] and t[2] indices. Meanwhile, the statistical differences between the mass ion intensity of endogenous compounds in two treatment groups were analyzed using the Student’s t-test of GraphPad Prism version 9.4.0 (GraphPad Software Inc., San Diego, CA, United States). The significance threshold was set at p < 0.05 (*), p < 0.01 (**), and p < 0.001 (***).

[5] = rat, single oral 2 mg/kg, 24 h, [M+H]+

C=C(C)[C@H]1Cc2c(ccc3c2O[C@@H]2COc4cc(OC)c(OC)cc4[C@@H]2C3=O)O1 [rotenone, Rotenone]
histological alterations in kidney tissue sections stained with H&E (kidney tissues [1]): no discernible histological alterations were detected
oral acute toxicity (rats): 34.10 mg/kg body weight
metabolic clearance rate [2]: approximately 100 mL/min/kg
biotransformed metabolites of rotenone in kidney tissue sections (MALDI MSI) ([3]; kidney): no biotransformed metabolites of rotenone were detected
biotransformed metabolites of rotenone in liver tissues (MALDI MSI) ([3]; liver): no biotransformed metabolites
Ion Intensity in Rotenone-treated Kidney Tissues: 3-methylhistidine (kidney tissues [4]; Table S1, [M+H]+): ↓
Ion Intensity in Rotenone-treated Kidney Tissues: Adenosine diphosphate (kidney tissues [4]; Table S1, [M+H]+): ↑
Ion Intensity in Rotenone-treated Kidney Tissues: Adenosine monophosphate (kidney tissues [4]; Table S1, [M+H]+): ↓
Ion Intensity in Rotenone-treated Kidney Tissues: Arginine (kidney tissues [4]; Table S1, [M+H]+): ↓
Ion Intensity in Rotenone-treated Kidney Tissues: Creatinine (kidney tissues [4]; Table S1, [M+H]+): ↓
Ion Intensity in Rotenone-treated Kidney Tissues: Histidine (kidney tissues [4]; Table S1, [M+H]+): ↑
Ion Intensity in Rotenone-treated Kidney Tissues: L-carnitine (kidney tissues [4]; Table S1, [M+H]+): ↑
Ion Intensity in Rotenone-treated Kidney Tissues: LysoPC(16:0) (kidney tissues [4]; Table S1, [M+H]+): ↓
Ion Intensity in Rotenone-treated Kidney Tissues: LysoPC(16:1) (kidney tissues [4]; Table S1, [M+H]+): ↑
Ion Intensity in Rotenone-treated Kidney Tissues: LysoPC(17:0) (kidney tissues [4]; Table S1, [M+H]+): ↓
Ion Intensity in Rotenone-treated Kidney Tissues: LysoPC(18:1) (kidney tissues [4]; Table S1, [M+H]+): ↑
Ion Intensity in Rotenone-treated Kidney Tissues: LysoPC(18:2) (kidney tissues [4]; Table S1, [M+H]+): ↑
Ion Intensity in Rotenone-treated Kidney Tissues: LysoPC(20:4) (kidney tissues [4]; Table S1, [M+H]+): ↑
Ion Intensity in Rotenone-treated Kidney Tissues: LysoPC(P-16:0) (kidney tissues [4]; Table S1, [M+H]+): ↓
Ion Intensity in Rotenone-treated Kidney Tissues: N-Acetylhistidine (kidney tissues [4]; Table S1, [M+H]+): ↓
Ion Intensity in Rotenone-treated Kidney Tissues: O-Phosphotyrosine (kidney tissues [4]; Table S1, [M+H]+): ↓
Ion Intensity in Rotenone-treated Kidney Tissues: Phenylalanine (kidney tissues [4]; Table S1, [M+H]+): ↓
Ion intensity in rotenone-treated kidney tissues: Choline (kidney tissues [4]; Table S1, [M+H]+): ↓***
Ion intensity in rotenone-treated kidney tissues: Sphingomyelin (D18:1/16:0) (kidney tissues [4]; Table S1, [M+H]+): ↑*
Ion intensity in rotenone-treated kidney tissues: Glycero-3-phosphocholine (kidney tissues [4]; Table S1): ↓*
Ion intensity in rotenone-treated kidney tissues: Inosine (kidney tissues [4]; Table S1): ↓**
Ion intensity in rotenone-treated kidney tissues: LysoPC(18:0) (kidney tissues [4]; Table S1): ↓**
Ion Intensity in Rotenone-treated Kidney Tissues: Phosphorylcholine (kidney tissues [4]; Table S1, [M]+): ↑
Ion intensity in rotenone-treated kidney tissues: Choline (kidney tissues [4]; [5]): ↓***
Ion intensity in rotenone-treated kidney tissues: Sphingomyelin (D18:1/16:0) (kidney tissues [4]; [5]): ↑*
Ion intensity in rotenone-treated kidney tissues: Glycero-3-phosphocholine (kidney tissues [4]; rat, single oral 2 mg/kg, 24 h): ↓*
Ion intensity in rotenone-treated kidney tissues: Inosine (kidney tissues [4]; rat, single oral 2 mg/kg, 24 h): ↓**
Ion intensity in rotenone-treated kidney tissues: LysoPC(18:0) (kidney tissues [4]; rat, single oral 2 mg/kg, 24 h): ↓**
ion intensity of choline in kidney tissues treated with rotenone (kidney tissues [4]; p < 0.001): significant decrease
inosine level in treated kidney (kidney tissues [4]; p < 0.01): significant reduction
ion intensity levels of LysoPC(18:0) in rotenone-treated kidney tissues (kidney tissues [4]; p < 0.01): decreased significantly
GPC level in drug-treated kidney tissues (kidney tissues [4]; p < 0.05): decreased significantly
sphingomyelin (D18:1/16:0) level in treated kidney (kidney tissues [4]; p < 0.05): significant increase
